Source: patent publication US20090247732A1 (Optimer Pharmaceuticals, Inc., priority 2003, published 2009)
Ends that are not written are not given here. Peptide text beside a SMILES is read from it. * marks the point of attachment. Fmoc = O=C(OCC1c2ccccc2-c2ccccc21)*

Columns and labels:
[1] = system: trypsin; experiment: Degradation study with trypsin (LCMS, product ratios by PDA integration); type: in vitro ADME; design: key to Deg 1 / Deg 2: product ratio (%) by PDA peak integration; settings: for Deg 1 / Deg 2 / mode of enzymatic degradation (cleavage site / products): trypsin; for Deg 1 / Deg 2: pH 7.5; for Parent (%): 120 units trypsin, 0.1 M pH 7.5 potassium phosphate buffer; for mode of enzymatic degradation (cleavage site / products): in words
Method: Degradation Study: A solution of 1 (1 mg) in 0.1 M, pH 7.5 potassium phosphate buffer (1 mL) was treated with 120 units of trypsin (10 μL of a 1 mg/mL solution of trypsin 12000 units/mg). A 20 μL aliquot of the sample was immediately analyzed by LCMS.
Column: Waters Symmetry 300, 4.6×250 mm, C18, 5 micron particle size.
Solvent B: Acetonitrile/0.1% TFA
Gradient: 15-40% B over 30 minutes; 15% B isocratic for 10 minutes
The initial injection was defined as “time 0” and one subsequent injection was carried out at 40 minutes. The degradation products were characterized by mass spectrometry using electrospray positive ionization (ES^+). Product ratios were determined by integration of photodiode array (PDA) spectra.

[2] = system: trypsin; experiment: trypsin in 0.1 M, pH 7.5 potassium phosphate buffer; settings: up to 40 minutes
[3] = degradation product 1, time 40 minutes
[4] = degradation product 2, time 40 minutes
[5] = time 40 (injection at 40 minutes)

Compound | Deg 1 ([1]; degradation product 1, time 0) | Deg 1 [1, 3] | Deg 2 ([1]; degradation product 2, time 0) | Deg 2 [1, 4] | Parent (%) ([1]; time 0 (initial injection)) | Parent (%) [1, 5] [%] | mode of enzymatic degradation (cleavage site / products) [1] | not cleaved [2] | cleaved bond [2] | fragment found [2]
N=C(N)NCCCC(NC(=O)C(CCCCN)NC(=O)C(CCCCN)NC(=O)OCC1c2ccccc2-c2ccccc21)C(=O)NCC(=O)NCC(=O)NC(CO)C(=O)O (stereo not shown) [Compound 4] (Fmoc-KKRGGS-OH; configuration not given here) | 4 | 54 | 4 | 45 | 92 | 1 | hydrolysis occurs sequentially inward from the N-terminus | – | – | –
KKRGGS | – | – | – | – | – | – | – | 100% parent at 40 minutes; no degradation products observed | – | –
KKRGGS [1] | – | – | – | – | – | – | – | – | arginine-glycine, first_seen | the two lysine residues conjugated to the carbohydrate
CC(=O)OCC1OC(OC2C(COC(C)=O)OC(OC3C(COC(C)=O)OC(OCC(=O)NC(CCCCN)C(=O)NC(CCCCN)C(=O)NC(CCCNC(=N)N)C(=O)NCC(=O)NCC(=O)NC(CO)C(=O)O)C(OC(C)=O)C3OC(C)=O)C(OC(C)=O)C2OC(C)=O)C(OC(C)=O)C(OC(C)=O)C1OC(C)=O (stereo not shown) [Compound 1] | 5 | 0 | 20 | 100 | 75 | 0 | hydrolysis is initially observed between the arginine and glycine residues | – | – | –
Compound 2: Crude triphenylmethyl protected glycopeptide from peptide A (SEQ ID No. 1) and carbohydrate glycolic acid C (KKRGGS; also: glycopeptide with carbohydrate glycolic acid C, triphenylmethyl protected) | 0 | 67 | – | – | 60 | 27 | a single, as yet uncharacterized product of the enzyme reaction | – | – | –
